US20160318987A1 (MEDIMMUNE LIMITED, priority 2013, published 2016)
Where a SMILES comes first, the peptide text is derived from it. [ ]: non-standard residue; d: D form. The star is where a group is joined. Palmitoyl = CCCCCCCCCCCCCCCC(=O)*; αMeF = C[C@](N)(Cc1ccccc1)C(=O)O; αMeK = C[C@](N)(CCCCN)C(=O)O; αMeV = CC(C)[C@](C)(N)C(=O)O; Aib = CC(C)(N)C(=O)O

Legend:
hGLP-1R = target: T1, hGLP-1R (Homo sapiens, UniProt P43220); experiment: cAMP functional assay, cells expressing human GLP-1 receptor (primary assay); assay type: cell-based; settings: n = 2
T1 construct: expressed in transfected cells
T1 sequence (P43220 24-463): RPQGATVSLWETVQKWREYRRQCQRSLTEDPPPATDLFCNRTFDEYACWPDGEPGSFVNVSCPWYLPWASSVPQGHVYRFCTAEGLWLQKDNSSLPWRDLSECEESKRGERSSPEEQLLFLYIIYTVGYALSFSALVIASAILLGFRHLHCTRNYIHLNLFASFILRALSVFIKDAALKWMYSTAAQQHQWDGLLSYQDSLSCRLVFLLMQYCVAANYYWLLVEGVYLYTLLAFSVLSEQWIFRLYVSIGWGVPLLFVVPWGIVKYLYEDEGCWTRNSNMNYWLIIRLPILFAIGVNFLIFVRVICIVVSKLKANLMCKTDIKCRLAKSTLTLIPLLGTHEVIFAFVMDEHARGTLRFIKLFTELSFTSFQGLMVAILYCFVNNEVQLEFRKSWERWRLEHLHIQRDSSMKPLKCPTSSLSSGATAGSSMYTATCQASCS

hGIP-R = target: T2, hGIP-R (Homo sapiens, UniProt P48546); experiment: cAMP functional assay, cells expressing human GIP receptor (primary assay); assay type: cell-based; settings: n = 2
T2 construct: expressed in transfected cells
T2 sequence (P48546 22-466): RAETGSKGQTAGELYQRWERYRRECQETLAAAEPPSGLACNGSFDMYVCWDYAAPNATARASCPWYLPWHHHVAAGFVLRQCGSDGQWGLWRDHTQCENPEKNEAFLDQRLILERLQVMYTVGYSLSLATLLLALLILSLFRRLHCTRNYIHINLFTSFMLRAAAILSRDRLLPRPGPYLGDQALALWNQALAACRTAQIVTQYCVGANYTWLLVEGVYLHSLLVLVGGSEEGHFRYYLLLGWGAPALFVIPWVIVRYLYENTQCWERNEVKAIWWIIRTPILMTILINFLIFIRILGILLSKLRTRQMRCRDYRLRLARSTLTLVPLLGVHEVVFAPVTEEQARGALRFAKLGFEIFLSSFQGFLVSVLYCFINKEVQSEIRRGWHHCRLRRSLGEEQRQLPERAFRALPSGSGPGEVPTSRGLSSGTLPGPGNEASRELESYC

Chymotrypsin (rhCTRC) = target: T3, Chymotrypsin (rhCTRC) (Homo sapiens, UniProt Q99895); experiment: chymotrypsin stability study (LC/MS); assay type: in vitro ADME; settings: for Chymotrypsin cleavage/liability (Discussion / Description): Table 2 description
T3 construct: purchased R&D Systems 6907-SE-010
T3 sequence (Q99895 30-268): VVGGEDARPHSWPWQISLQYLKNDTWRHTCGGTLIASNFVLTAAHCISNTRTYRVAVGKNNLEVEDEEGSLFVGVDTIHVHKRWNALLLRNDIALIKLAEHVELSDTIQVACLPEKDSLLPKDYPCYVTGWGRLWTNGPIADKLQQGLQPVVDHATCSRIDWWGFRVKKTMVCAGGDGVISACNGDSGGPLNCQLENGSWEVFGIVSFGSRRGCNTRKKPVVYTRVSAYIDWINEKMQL
Experimental: (§1) Peptides for evaluation were prepared to a concentration of 1.0 mg/mL solutions in either pure water, sterile saline for injection (0.9% w/v NaCl/water) or 1× PBS (Dulbecco). 100 μL (100 μg/mL peptide) of these solutions was added to 900 μL of each protease solution. Additional experiments were performed examining protein degradation during exposure to serum and gastric fluid. For serum studies, peptides were incubated with 50% female Sprague-Dawley strain rat serum (SD rat serum). For gastric fluid studies, peptides were incubated 1:1 (volume:volume), fresh rat gastric fluid.
(§2) The peptide and enzyme (or serum or gastric fluid) were co-incubated in a temperature regulated water bath at 37° C. for the duration of the experiment. During each experiment 100 μL aliquots (10 μg peptide) of the incubated peptide-enzyme mixture were withdrawn periodically, quenched by addition of an equal volume of 5% TFA (v/v) in 1:1 water/acetonitrile to arrest proteolytic activity, and analyzed by liquid chromatography-mass spectrometry (LC/MS): Agilent Polaris C8-A column (4.6×100 mm, 3 micron) using a linear binary gradient of 10-90% MeCN (0.1% TFA v/v) in water (0.1% TFA v/v) over 30 minutes at 1.5 mL min^−1 at ambient temperature. Analytes were detected by both UV absorption at 210 nm and ionization using a Waters 3100 mass detector (ESI^+ mode). New peptidic species (fragments) derived from enzymatic cleavage of peptides were analyzed post-process, and their molecular masses were used to identify the precise cleavage position (highlighting the scissile bond in each case).

[1] = target: T4, trypsin from porcine pancreas (Sus scrofa, UniProt P00761); experiment: trypsin stability study (LC/MS); assay type: in vitro ADME
T4 construct: purchased Sigma P7409; host or cells: porcine pancreas
T4 sequence (P00761 9-231): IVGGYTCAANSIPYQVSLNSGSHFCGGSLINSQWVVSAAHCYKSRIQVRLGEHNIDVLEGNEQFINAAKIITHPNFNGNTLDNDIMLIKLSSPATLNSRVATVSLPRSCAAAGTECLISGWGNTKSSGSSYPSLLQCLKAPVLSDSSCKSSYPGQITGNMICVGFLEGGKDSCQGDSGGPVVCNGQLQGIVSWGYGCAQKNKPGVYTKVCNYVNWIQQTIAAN
Experimental: as §1, §2

Neprilysin (rhNEP) = target: T5, Neprilysin (rhNEP) (Homo sapiens, UniProt P08473); experiment: neprilysin stability study (LC/MS); assay type: in vitro ADME; settings: Table 2 description
T5 construct: purchased R&D Systems 1182-ZNC-010
T5 sequence (P08473 52-750 limits assumed): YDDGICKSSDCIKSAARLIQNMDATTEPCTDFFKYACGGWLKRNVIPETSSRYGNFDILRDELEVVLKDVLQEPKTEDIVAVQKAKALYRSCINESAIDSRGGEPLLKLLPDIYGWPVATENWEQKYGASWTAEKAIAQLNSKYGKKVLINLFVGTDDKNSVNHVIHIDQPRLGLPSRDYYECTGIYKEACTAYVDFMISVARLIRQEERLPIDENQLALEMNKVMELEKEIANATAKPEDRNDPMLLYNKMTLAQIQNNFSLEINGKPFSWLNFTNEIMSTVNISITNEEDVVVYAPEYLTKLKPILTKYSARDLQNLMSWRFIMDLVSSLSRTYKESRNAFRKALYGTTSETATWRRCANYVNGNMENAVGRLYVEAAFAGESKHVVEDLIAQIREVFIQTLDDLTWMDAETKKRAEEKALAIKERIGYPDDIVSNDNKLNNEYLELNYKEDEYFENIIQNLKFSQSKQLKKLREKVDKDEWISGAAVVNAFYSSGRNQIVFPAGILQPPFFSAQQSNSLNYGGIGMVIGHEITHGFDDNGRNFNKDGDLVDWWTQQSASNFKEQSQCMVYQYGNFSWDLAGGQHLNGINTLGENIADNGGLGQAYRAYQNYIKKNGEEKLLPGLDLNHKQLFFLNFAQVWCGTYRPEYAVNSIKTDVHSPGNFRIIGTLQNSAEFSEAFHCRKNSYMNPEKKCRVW
Experimental: as §1, §2

hGluc-R = target: T6, hGluc-R (Homo sapiens, UniProt P47871); experiment: cAMP functional assay, cells expressing human glucagon receptor (primary assay); assay type: cell-based; settings: n = 2
T6 construct: expressed in transfected cells
T6 sequence (P47871 26-477): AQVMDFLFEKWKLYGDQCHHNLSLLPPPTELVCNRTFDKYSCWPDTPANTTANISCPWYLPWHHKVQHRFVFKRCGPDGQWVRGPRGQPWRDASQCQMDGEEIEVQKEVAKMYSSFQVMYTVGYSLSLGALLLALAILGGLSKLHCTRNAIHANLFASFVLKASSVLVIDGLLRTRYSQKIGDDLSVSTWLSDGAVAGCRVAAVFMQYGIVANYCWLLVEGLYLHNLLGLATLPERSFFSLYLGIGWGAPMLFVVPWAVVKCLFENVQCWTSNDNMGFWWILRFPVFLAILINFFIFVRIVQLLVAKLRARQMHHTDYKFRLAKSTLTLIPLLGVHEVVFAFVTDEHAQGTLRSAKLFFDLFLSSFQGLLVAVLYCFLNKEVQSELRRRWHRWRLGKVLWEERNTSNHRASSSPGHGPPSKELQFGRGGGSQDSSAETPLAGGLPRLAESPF

[2] = gastric fluid stability study (LC/MS); assay type: in vitro ADME, rat
Experimental: as §1, §2

[3] = tested on: DPP-IV, Neprilysin, Chymotrypsin, Trypsin, Pepsin; experiment: enzyme resistance, protease panel (Table 2 description); assay type: in vitro ADME
Experimental: as §1, §2

Structure (SMILES)	EC50 (hGLP-1R) [nM]	EC50 (hGIP-R) [nM]	Chymotrypsin cleavage/liability (Discussion / Description) (Chymotrypsin (rhCTRC))	Trypsin resistance/susceptibility (Discussion / Description) ([1]; Table 2 description)	Neprilysin resistance (Discussion / Description) (Neprilysin (rhNEP))	EC50 (hGluc-R) [nM]	duration of stability ([1]; trypsin, 37° C.)	duration of stability, no major cleavage products (Chymotrypsin (rhCTRC); chymotrypsin, 37° C.)	stability relative to Liraglutide ([2]; rat gastric fluid 1:1)	stability relative to lipidated comparator SEQ ID NO: 5 ([2]; rat gastric fluid 1:1)	spectrum over the time course ([2]; rat gastric fluid, zoomed spectra)	enzyme resistance (DPP-IV, Neprilysin, Chymotrypsin, Trypsin, Pepsin) [3]
CC[C@H](C)[C@H](NC(=O)[C@](C)(Cc1ccccc1)NC(=O)[C@H](CCC(=O)O)NC(=O)[C@H](CCCCN)NC(=O)[C@H](C)NC(=O)[C@H](C)NC(=O)[C@H](CCC(N)=O)NC(=O)CNC(=O)[C@H](CCC(=O)O)NC(=O)[C@H](CC(C)C)NC(=O)[C@](C)(Cc1ccccc1)NC(=O)[C@H](CO)NC(=O)[C@H](CO)NC(=O)[C@@H](NC(=O)[C@H](CC(=O)O)NC(=O)[C@H](CO)NC(=O)[C@@H](NC(=O)[C@](C)(Cc1ccccc1)NC(=O)[C@H](CO)NC(=O)CNC(=O)[C@H](CCC(=O)O)NC(=O)C(C)(C)NC(=O)[C@@H](N)Cc1c[nH]cn1)[C@@H](C)O)C(C)C)C(=O)N[C@@H](C)C(=O)N[C@@](C)(Cc1ccccc1)C(=O)N[C@@H](CC(C)C)C(=O)N[C@](C)(C(=O)N[C@@H](CCCCN)C(=O)NCC(=O)N[C@@H](CCCNC(=N)N)C(N)=O)C(C)C [SEQ ID NO: 41, H-(Aib)^2-EG-(S)^5-(α-MeF)^6-TSDV^10 SS-(α-MeF)^13-LE^15 GQAAK^20 E-(α-MeF)^22-IA-(α-MeF)^25 L-(α-MeV)^27-KGR^30] (H-H[Aib]EGS[αMeF]TSDVSS[αMeF]LEGQAAKE[αMeF]IA[αMeF]L[αMeV]KGR-NH2)	0.0546	102	MeVal^27 overcomes									
CC[C@H](C)[C@H](NC(=O)[C@](C)(Cc1ccccc1)NC(=O)[C@H](CCC(=O)O)NC(=O)[C@](C)(CCCCN)NC(=O)[C@H](C)NC(=O)[C@H](C)NC(=O)[C@H](CCC(N)=O)NC(=O)CNC(=O)[C@H](CCC(=O)O)NC(=O)[C@H](CC(C)C)NC(=O)[C@](C)(Cc1ccccc1)NC(=O)[C@H](CO)NC(=O)[C@H](CO)NC(=O)[C@@H](NC(=O)[C@H](CC(=O)O)NC(=O)[C@H](CO)NC(=O)[C@@H](NC(=O)[C@](C)(Cc1ccccc1)NC(=O)[C@H](CO)NC(=O)CNC(=O)[C@H](CCC(=O)O)NC(=O)C(C)(C)NC(=O)[C@@H](N)Cc1c[nH]cn1)[C@@H](C)O)C(C)C)C(=O)N[C@@H](C)C(=O)N[C@@](C)(Cc1ccccc1)C(=O)N[C@H](C(=O)N[C@H](C(=O)N[C@@](C)(CCCCN)C(=O)NCC(=O)NCC(N)=O)C(C)C)C(C)C [SEQ ID NO: 51, H-(Aib)^2-EG-(S)^5-(α-MeF)^6-TSDV^10 SS-(α-MeF)^13-LE^15 GQAA-(α-MeK)^20 E-(α-MeF)^22-IA-(α-MeF)^25-(V)^26-V-(α-MeK)^28-G-(G)^30] (H-H[Aib]EGS[αMeF]TSDVSS[αMeF]LEGQAA[αMeK]E[αMeF]IA[αMeF]VV[αMeK]GG-NH2)	0.0219	104	overcoming Chymotrypsin			104	over 18 hours	over 60 hours				
CCCCCCCCCCCCCCCC(=O)NCCCC[C@H](NC(=O)CNC(=O)CNC(=O)[C@](C)(CCCCN)NC(=O)[C@@H](NC(=O)[C@@H](NC(=O)[C@](C)(Cc1ccccc1)NC(=O)[C@H](C)NC(=O)[C@@H](NC(=O)[C@](C)(Cc1ccccc1)NC(=O)[C@H](CCC(=O)O)NC(=O)[C@](C)(CCCCN)NC(=O)[C@H](C)NC(=O)[C@H](C)NC(=O)[C@H](CCC(N)=O)NC(=O)CNC(=O)[C@H](CCC(=O)O)NC(=O)[C@H](CC(C)C)NC(=O)[C@](C)(Cc1ccccc1)NC(=O)[C@H](CO)NC(=O)[C@H](CO)NC(=O)[C@@H](NC(=O)[C@H](CC(=O)O)NC(=O)[C@H](CO)NC(=O)[C@@H](NC(=O)[C@](C)(Cc1ccccc1)NC(=O)[C@H](CO)NC(=O)CNC(=O)[C@H](CCC(=O)O)NC(=O)C(C)(C)NC(=O)[C@@H](N)Cc1c[nH]cn1)[C@@H](C)O)C(C)C)[C@@H](C)CC)C(C)C)C(C)C)C(N)=O [SEQ ID NO: 52, H-(Aib)^2-EG-(S)^5-(α-MeF)^6-TSDV^10 SS-(α-MeF)^13-LE^15 GQAA-(α-MeK)^20 E-(α-MeF)^22-IA-(α-MeF)^25-(V)^26-V-(α-MeK)^28-G-(G)^30-K(Ε-Palm)] (H-H[Aib]EGS[αMeF]TSDVSS[αMeF]LEGQAA[αMeK]E[αMeF]IA[αMeF]VV[αMeK]GGK(Palmitoyl)-NH2)	0.41	93.1				93.1			significantly exceeds	significantly exceeds	virtually unchanged spectrum	excellent enzyme resistance

The remaining compounds from weak to strong by EC50 (hGLP-1R), led by results:

EC50 (hGLP-1R) [nM]	EC50 (hGIP-R) [nM]	Chymotrypsin cleavage/liability (Discussion / Description) (Chymotrypsin (rhCTRC))	Trypsin resistance/susceptibility (Discussion / Description) ([1]; Table 2 description)	Neprilysin resistance (Discussion / Description) (Neprilysin (rhNEP))	EC50 (hGluc-R) [nM]	duration of stability ([1]; trypsin, 37° C.)	duration of stability, no major cleavage products (Chymotrypsin (rhCTRC); chymotrypsin, 37° C.)	stability relative to Liraglutide ([2]; rat gastric fluid 1:1)	stability relative to lipidated comparator SEQ ID NO: 5 ([2]; rat gastric fluid 1:1)	spectrum over the time course ([2]; rat gastric fluid, zoomed spectra)	enzyme resistance (DPP-IV, Neprilysin, Chymotrypsin, Trypsin, Pepsin) [3]	Structure (SMILES)
0.034	99.7				30.4						Excellent enzyme resistance	CC[C@H](C)[C@H](NC(=O)[C@](C)(Cc1ccccc1)NC(=O)[C@H](CCC(=O)O)NC(=O)[C@](C)(CCCCN)NC(=O)[C@H](C)NC(=O)[C@H](C)NC(=O)[C@H](CCC(=O)O)NC(=O)CNC(=O)[C@H](CCC(=O)O)NC(=O)[C@H](CC(C)C)NC(=O)[C@](C)(Cc1ccccc1)NC(=O)[C@H](CO)NC(=O)[C@H](CO)NC(=O)[C@@H](NC(=O)[C@H](CC(=O)O)NC(=O)[C@H](CO)NC(=O)[C@@H](NC(=O)[C@](C)(Cc1ccccc1)NC(=O)[C@H](CO)NC(=O)CNC(=O)[C@H](CCC(=O)O)NC(=O)C(C)(C)NC(=O)[C@@H](N)Cc1c[nH]cn1)[C@@H](C)O)C(C)C)C(=O)N[C@@H](C)C(=O)N[C@@](C)(Cc1ccccc1)C(=O)N[C@H](C(=O)N[C@H](C(=O)N[C@@](C)(CCCCN)C(=O)NCC(=O)NCC(=O)N[C@@H](CCCCN)C(N)=O)C(C)C)C(C)C [SEQ ID NO: 61, H-(Aib)^2-EG-(S)^5-(α-MeF)^6-TSDV^10 SS-(α-MeF)^13-LE^15 G-(E)^17-AA-(α-MeK)^20 E-(α-MeF)^22-IA-(α-MeF)^25-(V)^26-V-(α-MeK)^28-G-(G)^30-(K)^31] (H-H[Aib]EGS[αMeF]TSDVSS[αMeF]LEGEAA[αMeK]E[αMeF]IA[αMeF]VV[αMeK]GGK-NH2)
0.0141	103		resistance, maintaining	resistance, maintaining	103							CC[C@H](C)[C@H](NC(=O)[C@](C)(Cc1ccccc1)NC(=O)[C@H](CCC(=O)O)NC(=O)[C@](C)(CCCCN)NC(=O)[C@H](C)NC(=O)[C@H](C)NC(=O)[C@H](CCC(N)=O)NC(=O)CNC(=O)[C@H](CCC(=O)O)NC(=O)[C@H](CC(C)C)NC(=O)[C@](C)(Cc1ccccc1)NC(=O)[C@H](CO)NC(=O)[C@H](CO)NC(=O)[C@@H](NC(=O)[C@H](CC(=O)O)NC(=O)[C@H](CO)NC(=O)[C@@H](NC(=O)[C@](C)(Cc1ccccc1)NC(=O)[C@H](CO)NC(=O)CNC(=O)[C@H](CCC(=O)O)NC(=O)C(C)(C)NC(=O)[C@@H](N)Cc1c[nH]cn1)[C@@H](C)O)C(C)C)C(=O)N[C@@H](C)C(=O)N[C@@](C)(Cc1ccccc1)C(=O)N[C@@H](CC(C)C)C(=O)N[C@H](C(=O)N[C@@](C)(CCCCN)C(=O)NCC(=O)NCC(N)=O)C(C)C [SEQ ID NO: 46, H-(Aib)^2-EG-(S)^5-(α-MeF)^6-TSDV^10 SS-(α-MeF)^13-LE^15 GQAA-(α-MeK)^20 E-(α-MeF)^22-IA-(α-MeF)^25 LV-(α-MeK)^28-G-(G)^30] (H-H[Aib]EGS[αMeF]TSDVSS[αMeF]LEGQAA[αMeK]E[αMeF]IA[αMeF]LV[αMeK]GG-NH2)
